Measurements as given in ChEMBL document CHEMBL1151134, “Anti-AIDS agents, 1. Isolation and characterization of four new tetragalloylquinic acids as a new class of HIV reverse transcriptase inhibitors from tannic acid” (J Nat Prod, 1989).

Experiments:
[1] = system: Human immunodeficiency virus; test: Inhibition of HIV reverse transcriptase assessed as incorporation of [3H]dTMP at 100 nM
[2] = system: Human immunodeficiency virus; test: Inhibition of HIV reverse transcriptase assessed as incorporation of [3H]dTMP at 100 uM
[3] = system: Human immunodeficiency virus; test: Inhibition of HIV reverse transcriptase assessed as incorporation of [3H]dTMP at 30 uM
[4] = system: Human immunodeficiency virus; test: Inhibition of HIV reverse transcriptase assessed as incorporation of [3H]dTMP at 10 uM
[5] = system: Human immunodeficiency virus 1; test: Antiviral activity against HIV1 3B replication in human H9 cells at 25 uM after 3 days by p24 antigen capture assay relative to control; format: functional; conditions: Human immunodeficiency virus 1, 3B, H9, 72 h
[6] = system: Human immunodeficiency virus 1; test: Antiviral activity against HIV1 3B replication in human H9 cells at 6.25 uM after 3 days by p24 antigen capture assay relative to control; format: functional; conditions: Human immunodeficiency virus 1, 3B, H9, 72 h
[7] = system: Human immunodeficiency virus 1; test: Antiviral activity against HIV1 3B replication in human H9 cells at 1.25 uM after 3 days by p24 antigen capture assay relative to control; format: functional; conditions: Human immunodeficiency virus 1, 3B, H9, 72 h
[8] = Cytotoxicity against human H9 cells at 25 uM; format: cell-based; conditions: read-out: INH
H9 [9] = test: Cytotoxicity against human H9 cells at 1.25 uM; format: cell-based; conditions: h9, 1.25 µM
H9 [10] = test: Cytotoxicity against human H9 cells at 6.25 uM; format: cell-based; conditions: h9, 6.25 µM
[11] = biological target: T1, DNA polymerase alpha catalytic subunit (Homo sapiens) (UniProt P09884); test: Inhibition of human DNA polymerase alpha
T1 sequence (whole entry): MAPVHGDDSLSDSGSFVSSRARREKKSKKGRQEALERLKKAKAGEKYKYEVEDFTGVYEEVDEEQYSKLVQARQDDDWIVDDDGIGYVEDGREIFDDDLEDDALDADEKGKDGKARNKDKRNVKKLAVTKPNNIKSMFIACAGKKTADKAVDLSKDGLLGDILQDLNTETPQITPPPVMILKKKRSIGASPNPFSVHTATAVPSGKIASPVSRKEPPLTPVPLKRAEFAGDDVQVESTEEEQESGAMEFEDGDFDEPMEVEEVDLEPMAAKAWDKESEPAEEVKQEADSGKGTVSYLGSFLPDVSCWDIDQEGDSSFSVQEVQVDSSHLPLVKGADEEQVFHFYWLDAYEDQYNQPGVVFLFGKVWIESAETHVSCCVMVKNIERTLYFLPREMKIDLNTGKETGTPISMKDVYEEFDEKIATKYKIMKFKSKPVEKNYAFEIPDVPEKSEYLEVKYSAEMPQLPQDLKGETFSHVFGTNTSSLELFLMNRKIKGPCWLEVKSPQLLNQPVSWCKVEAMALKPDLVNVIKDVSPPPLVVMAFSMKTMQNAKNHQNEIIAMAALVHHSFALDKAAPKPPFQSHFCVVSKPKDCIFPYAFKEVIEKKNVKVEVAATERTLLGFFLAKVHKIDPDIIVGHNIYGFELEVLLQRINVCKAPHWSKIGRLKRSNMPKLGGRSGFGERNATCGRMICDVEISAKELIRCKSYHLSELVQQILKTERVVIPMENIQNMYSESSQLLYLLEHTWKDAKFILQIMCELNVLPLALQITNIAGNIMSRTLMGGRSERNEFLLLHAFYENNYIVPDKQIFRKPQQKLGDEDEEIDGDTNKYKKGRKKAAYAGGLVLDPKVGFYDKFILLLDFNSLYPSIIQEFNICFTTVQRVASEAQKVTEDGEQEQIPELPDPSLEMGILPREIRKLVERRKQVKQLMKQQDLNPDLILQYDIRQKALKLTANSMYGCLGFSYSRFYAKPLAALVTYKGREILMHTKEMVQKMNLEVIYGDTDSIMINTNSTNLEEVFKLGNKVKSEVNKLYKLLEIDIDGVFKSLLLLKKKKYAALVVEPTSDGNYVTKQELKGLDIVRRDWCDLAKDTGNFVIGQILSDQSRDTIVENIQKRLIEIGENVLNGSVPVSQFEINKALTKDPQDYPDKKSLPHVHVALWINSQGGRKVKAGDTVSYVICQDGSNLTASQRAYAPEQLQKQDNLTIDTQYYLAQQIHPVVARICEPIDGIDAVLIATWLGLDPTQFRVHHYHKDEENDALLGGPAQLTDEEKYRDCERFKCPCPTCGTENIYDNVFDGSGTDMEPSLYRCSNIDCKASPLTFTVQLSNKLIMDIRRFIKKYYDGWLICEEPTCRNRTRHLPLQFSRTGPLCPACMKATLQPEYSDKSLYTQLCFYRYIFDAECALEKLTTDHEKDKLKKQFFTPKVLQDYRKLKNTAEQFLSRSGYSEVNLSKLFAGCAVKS

[12] = biological target: DNA polymerase beta (Homo sapiens) (UniProt P06746); test: Inhibition of human DNA polymerase beta
[13] = biological target: T2, DNA polymerase subunit gamma-1 (Homo sapiens) (UniProt P54098); test: Inhibition of human DNA polymerase gamma
T2 sequence (whole entry): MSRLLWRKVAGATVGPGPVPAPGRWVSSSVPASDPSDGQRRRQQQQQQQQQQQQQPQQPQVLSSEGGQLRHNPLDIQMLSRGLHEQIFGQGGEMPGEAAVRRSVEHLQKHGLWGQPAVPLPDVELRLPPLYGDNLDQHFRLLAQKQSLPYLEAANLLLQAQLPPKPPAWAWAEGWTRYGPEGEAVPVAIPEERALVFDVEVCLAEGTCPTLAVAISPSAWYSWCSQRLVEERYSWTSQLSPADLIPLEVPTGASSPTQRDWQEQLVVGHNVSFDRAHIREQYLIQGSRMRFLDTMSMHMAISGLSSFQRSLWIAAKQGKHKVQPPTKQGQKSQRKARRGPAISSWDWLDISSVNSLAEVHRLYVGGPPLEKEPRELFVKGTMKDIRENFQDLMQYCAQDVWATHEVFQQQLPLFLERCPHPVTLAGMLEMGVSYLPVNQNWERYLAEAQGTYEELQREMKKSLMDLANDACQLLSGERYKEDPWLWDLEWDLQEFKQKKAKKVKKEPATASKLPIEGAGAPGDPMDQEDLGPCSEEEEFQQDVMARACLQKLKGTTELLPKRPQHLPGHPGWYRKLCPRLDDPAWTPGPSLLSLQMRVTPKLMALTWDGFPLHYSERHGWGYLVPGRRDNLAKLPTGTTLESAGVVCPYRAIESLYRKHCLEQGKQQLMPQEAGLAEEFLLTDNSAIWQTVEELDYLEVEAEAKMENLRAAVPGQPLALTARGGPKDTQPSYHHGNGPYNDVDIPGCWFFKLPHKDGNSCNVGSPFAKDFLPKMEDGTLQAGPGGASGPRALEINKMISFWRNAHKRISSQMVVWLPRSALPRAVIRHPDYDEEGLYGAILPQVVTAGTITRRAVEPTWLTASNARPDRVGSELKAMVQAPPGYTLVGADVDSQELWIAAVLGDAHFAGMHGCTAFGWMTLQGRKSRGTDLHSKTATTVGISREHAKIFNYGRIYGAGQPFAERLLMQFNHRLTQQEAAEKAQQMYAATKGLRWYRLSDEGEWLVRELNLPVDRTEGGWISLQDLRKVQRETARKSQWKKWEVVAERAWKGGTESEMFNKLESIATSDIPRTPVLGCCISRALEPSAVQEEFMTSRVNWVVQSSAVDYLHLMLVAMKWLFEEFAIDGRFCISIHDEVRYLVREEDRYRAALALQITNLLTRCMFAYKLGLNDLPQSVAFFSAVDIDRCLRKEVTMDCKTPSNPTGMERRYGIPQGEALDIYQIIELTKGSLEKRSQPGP

[14] = system: Human immunodeficiency virus; test: Inhibition of HIV reverse transcriptase
[15] = system: Human immunodeficiency virus; test: Inhibition of HIV reverse transcriptase assessed as incorporation of [3H]dTMP at 100 ug/ml
[16] = system: Human immunodeficiency virus 1; test: Antiviral activity against HIV1 3B replication in human H9 cells at 30.8 uM after 3 days by p24 antigen capture assay relative to control; format: functional; conditions: Human immunodeficiency virus 1, 3B, H9, 72 h
[17] = system: Human immunodeficiency virus 1; test: Antiviral activity against HIV1 3B replication in human H9 cells at 7.7 uM after 3 days by p24 antigen capture assay relative to control; format: functional; conditions: Human immunodeficiency virus 1, 3B, H9, 72 h
[18] = system: Human immunodeficiency virus 1; test: Antiviral activity against HIV1 3B replication in human H9 cells at 1.5 uM after 3 days by p24 antigen capture assay relative to control; format: functional; conditions: Human immunodeficiency virus 1, 3B, H9, 72 h
[19] = system: Human immunodeficiency virus; test: Inhibition of HIV reverse transcriptase assessed as incorporation of [3H]dTMP at 0.6 uM

Compound	inhibition [2] [%]	inhibition [3] [%]	inhibition [4] [%]	inhibition at 25 µM [5] [%]	inhibition at 6.25 µM [6] [%]	inhibition at 1.25 µM [7] [%]	cytotoxicity at 25 µM [8] [%]	Activity (H9 [9])	Activity (H9 [10])	also measured
Cc1cn([C@H]2C[C@H](N=[N+]=[N-])[C@@H](COP(=O)(O)OP(=O)(O)OP(=O)(O)O)O2)c(=O)[nH]c1=O	–	–	–	–	–	–	–	–	–	inhibition [1]: 64%
O=C(Oc1c(O)cc(C(=O)O[C@@H]2C[C@@](O)(C(=O)O)C[C@@H](OC(=O)c3cc(O)c(O)c(O)c3)[C@@H]2OC(=O)c2cc(O)c(O)c(O)c2)cc1O)c1cc(O)c(O)c(O)c1	89	70	55	63	50	28	0	Non-toxic	Non-toxic	ID50 [11]: 0.065 µM; ID50 [12]: 21 µM; ID50 [13]: 2.5 µM; ID50 [14]: 29 µM
O=C(OC[C@H]1O[C@@H](OC(=O)c2cc(O)c(O)c(OC(=O)c3cc(O)c(O)c(O)c3)c2)[C@H](OC(=O)c2cc(O)c(O)c(OC(=O)c3cc(O)c(O)c(O)c3)c2)[C@@H](OC(=O)c2cc(O)c(O)c(OC(=O)c3cc(O)c(O)c(O)c3)c2)[C@@H]1OC(=O)c1cc(O)c(O)c(OC(=O)c2cc(O)c(O)c(O)c2)c1)c1cc(O)c(O)c(OC(=O)c2cc(O)c(O)c(O)c2)c1	–	–	–	–	–	–	–	–	–	inhibition [15]: 74%
O=C(O[C@@H]1C[C@](OC(=O)c2cc(O)c(O)c(O)c2)(C(=O)O)C[C@@H](OC(=O)c2cc(O)c(O)c(O)c2)[C@H]1OC(=O)c1cc(O)c(O)c(O)c1)c1cc(O)c(O)c(O)c1	94	84	36	66	52	15	25	Non-toxic	Non-toxic	–
O=C(Oc1c(O)cc(C(=O)O[C@H]2[C@H](OC(=O)c3cc(O)c(O)c(O)c3)C[C@](O)(C(=O)O)C[C@H]2OC(=O)c2cc(O)c(O)c(O)c2)cc1O)c1cc(O)c(O)c(O)c1	90	73	53	71	57	34	14	Non-toxic	Non-toxic	–
O=C(O[C@@H]1C[C@](O)(C(=O)O)C[C@@H](OC(=O)c2cc(O)c(O)c(O)c2)[C@H]1OC(=O)c1cc(O)c(O)c(O)c1)c1cc(O)c(O)c(O)c1	58	48	39	–	–	–	14	Non-toxic	Non-toxic	inhibition at 30.8 µM [16]: 70%; inhibition at 7.7 µM [17]: 59%; inhibition at 1.5 µM [18]: 26%
O=C(Oc1c(O)cc(C(=O)O[C@@H]2C[C@](O)(C(=O)O)C[C@@H](OC(=O)c3cc(O)c(O)c(O)c3)[C@H]2OC(=O)c2cc(O)c(O)c(O)c2)cc1O)c1cc(O)c(O)c(O)c1	84	63	50	61	44	13	25	Non-toxic	Non-toxic	–
O=C(O)P(=O)(O)O	–	–	–	–	–	–	–	–	–	inhibition [19]: 63%
